Measured values from ChEMBL document CHEMBL2074416, “High-affinity interaction of tyrosine kinase inhibitors with the ABCG2 multidrug transporter” (Mol Pharmacol, 2004).

Columns and labels:
[1] = target: T1, Broad substrate specificity ATP-binding cassette transporter ABCG2 (Homo sapiens, UniProt Q9UNQ0); experiment: TP_TRANSPORTER: stimulation of ATPase activity (0.1~1 u M) in BCRP-expressing Sf9 cells; assay type: functional, cell membranes, Membrane
T1 sequence (Q9UNQ0 whole entry): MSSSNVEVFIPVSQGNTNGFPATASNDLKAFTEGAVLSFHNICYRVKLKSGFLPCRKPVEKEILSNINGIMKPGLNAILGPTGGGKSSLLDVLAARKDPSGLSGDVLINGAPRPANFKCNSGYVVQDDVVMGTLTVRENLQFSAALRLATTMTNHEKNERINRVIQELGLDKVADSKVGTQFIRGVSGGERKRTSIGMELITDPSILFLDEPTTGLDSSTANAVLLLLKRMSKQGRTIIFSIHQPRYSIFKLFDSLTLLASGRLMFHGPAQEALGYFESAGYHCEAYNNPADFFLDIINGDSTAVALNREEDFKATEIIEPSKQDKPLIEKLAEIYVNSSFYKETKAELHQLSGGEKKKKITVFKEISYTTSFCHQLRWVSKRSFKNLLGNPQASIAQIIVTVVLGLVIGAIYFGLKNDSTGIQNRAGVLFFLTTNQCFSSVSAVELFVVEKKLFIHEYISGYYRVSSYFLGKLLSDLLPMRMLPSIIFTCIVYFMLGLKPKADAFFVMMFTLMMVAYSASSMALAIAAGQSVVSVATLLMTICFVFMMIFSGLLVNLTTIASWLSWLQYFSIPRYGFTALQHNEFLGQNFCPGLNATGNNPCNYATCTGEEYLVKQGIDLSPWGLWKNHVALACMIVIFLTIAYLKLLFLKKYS

[2] = target: T1, Broad substrate specificity ATP-binding cassette transporter ABCG2; experiment: TP_TRANSPORTER: efflux of Hoechst33342 in BCRP-expressing Sf9 cells; assay type: functional

## CC#CC(=O)Nc1ccc2ncnc(Nc3cccc(Br)c3)c2c1
[1]
  Activity: inhibitor []
[2]
  IC50: 0.2 µM

## COc1cc2ncnc(Nc3ccc(F)c(Cl)c3)c2cc1OCCCN1CCOCC1 [GEFITINIB]
[1]
  Activity: inhibitor []
